# Patent publication US20040092456A1, “Methods for identifying glucose uptake modulators” (priority 2002, published 2004)
# Key:
# Type in all cases: cell-based, mouse
# EDL muscles [1] = experiment: Insulin-mediated 2-deoxyglucose (2-DG) uptake in isolated EDL muscles; conditions: insulin 10 milliunits ml^−1
# Description: (§1) Adult male mice (NMRI strain) were housed at room temperature and fed ad libitum. Animals were killed by rapid neck disarticulation and muscles removed. Extensor digitorum longus (EDL; mainly fast-twitch fibers)) and soleus (mainly slow-twitch fibers) muscles were used for measurements of 2-deoxyglucose (2-DG) uptake. Flexor digitorum brevis (FDB, mainly fast-twitch fibers) muscles were used in single fiber experiments. All procedures were approved by the local ethics committee.
# (§2) 2-DG uptake was measured essentially as described elsewhere (Shashkin et al. (1995) J Biol Chem 270:25613-25618; Le Marchand-Brustel et al. (1979) J Clin Invest 64:1505-1515). Briefly, muscles were incubated at 35° C. in Krebs bicarbonate buffer containing 2 mmol 1^−1 pyruvate (no glucose) ±an antagonist of SMCE, either 2-APB, a relatively specific inhibitor of SMCE that appears to act directly on SMCE channels (Braun et al. (2001) J Biol Chem 276:1063-1070; Broad et al. (2001) J Biol Chem 276:15945-15952), or MDL, another inhibitor of SMCE with different modes of action as compared to 2-APB (van Rossum et al. (2000) J Biol Chem 275:28562-28568). In other experiments muscles were incubated in 2,5-di(tert-butyl)-1,4-benzohydroquinone (TBQ), an inhibitor of SR Ca^2+ uptake (Westerblad et al. (1994) J Physiol 474:291-301). In some experiments insulin was added (10 milliunits ml^−1) after the initial 30 min incubation period. After an additional 30 min, 2-DG (1 mmol 1^−1; 1 mCi mmol^−1) and inulin (0.2 μCi per ml medium) were added. Muscles were blotted and frozen in liquid nitrogen 20 min after addition of 2-DG. Muscles were then weighed, digested in NaOH at 70° C., cooled and centrifuged, and aliquots of the supernatants were added to scintillation cocktail and counted for ^3H (2-DG) and ^14C (inulin).
# In some experiments on EDL muscles, 2-DG glucose uptake was measured after 2-APB removal in the continued presence of insulin. After the initial 30 min incubation period, insulin (10 milliunits ml^−1) was added and remained in the solution for the rest of the experiment. After an additional 30 min, 2-APB (100 μM) was added. […] Control muscles were treated in the same way except that 2-APB was never added.
# soleus muscles [2] = experiment: Insulin-mediated 2-deoxyglucose (2-DG) uptake in isolated soleus muscles; conditions: insulin 10 milliunits ml^−1
# Description: as §1, §2
# EDL muscles [3] = experiment: Basal 2-DG uptake (no insulin) in isolated EDL muscles; conditions: for Basal rate of 2-DG uptake, EDL: 2-APB 0.1 mmol 1^−1, MDL 300 μmol 1^−1, TBQ 500 nmol 1^−1, mean ± SEM (n)
# Description: as §1, §2
# soleus muscles [4] = experiment: Basal 2-DG uptake (no insulin) in isolated soleus muscles; conditions: for Basal rate of 2-DG uptake, Soleus: MDL 300 μmol 1^−1, TBQ 500 nmol 1^−1, mean ± SEM (n)
# Description: as §1, §2
# skeletal muscle = experiment: Contractile function (tetanic force, relaxation) during drug exposure
# Description: To ensure that this inhibition was not caused by a generalized, unspecific inhibitory effect of the drug, contractile function was tested during exposure to 2-APB.
# [5] = test system: store-mediated Ca^2+ entry (SMCE); experiment: Rate of Mn2+ quenching of fura-2 fluorescence in single FDB muscle fibers (indirect measure of SMCE)
# Description: as §1
# (§3) Experiments on single FDB muscle fibers were performed at 24° C. The isolated fiber was mounted in a stimulation chamber and continuously superfused by standard Tyrode solution (Lännergren et al. (1987) J Physiol 390:285-293). The free myoplasmic [Ca^2+] ([Ca^2+]i) was measured with the fluorescent Ca^2+ indicator indo-1 (Andrade et al. (1998) J Physiol 509:565-575). An indirect measure of SMCE was obtained by measuring the rate of Mn^2+ entry and quenching of the fluorescence intensity of fura-2 (Hopfet al. (1996) J Biol Chem 271:22358-22367). MnCl2 (100 μmol 1^−1) was added to the bath solution and the fura-2 injected muscle fiber was excited at 360±5 nm (the isosbestic wavelength of fiira-2 under our experimental conditions) while measuring the fluorescence light emitted at 495±5 nm. The rate of Mn^2+ quenching was measured during periods where the rate of decrease of the fluorescent light was stable, i.e. ignoring transient changes induced by changes of the bath solution. Measurements were not performed until 2 min after application of insulin, thus allowing time for insulin to act.
# single FDB muscle fibers = experiment: Free myoplasmic [Ca2+]i measured with indo-1 in single FDB muscle fibers; conditions: global [Ca^2+]i, 75±13 before, n=4
# Description: as §1
# as §3, with “The isolated fiber was mounted in a stimulation chamber and continuously superfused by standard Tyrode solution (Lännergren et al. (1987) J Physiol 390:285-293). The free myoplasmic [Ca^2+]” left out, “Measurements were not performed until 2 min after application of insulin, thus allowing time for insulin to act.” left out
Compound,"Effect on insulin-mediated 2-DG uptake, EDL (in words) (EDL muscles [1])","Effect on insulin-mediated 2-DG uptake, soleus (in words) (soleus muscles [2])","Effect on basal 2-DG uptake, EDL (in words) (EDL muscles [3])","Basal rate of 2-DG uptake, EDL (EDL muscles [3])","Effect on basal 2-DG uptake, soleus (in words) (soleus muscles [4])","Basal rate of 2-DG uptake, Soleus (soleus muscles [4])",Reversibility of the force reduction on washout (skeletal muscle; 100 μmol 1^−1 MDL),"Reduction of tetanic force (skeletal muscle; 100 μmol 1^−1 MDL, 30 min of exposure, n=4)","Increase in the rate of Mn^2+ quenching on addition of insulin ([5]; 0 mmol 1^−1 glucose, n=5)","Insulin-induced change of the rate of Mn^2+ quenching (in words) ([5]; 5.5 mmol 1^−1 glucose, mean data, n=6)",Recovery of the 2-APB-induced decrease of quenching rate by insulin ([5]; insulin 10 mU ml^−1 in continued presence of 2-APB 100 μmol 1^−1),[Ca^2+]i after application of insulin (single FDB muscle fibers),"Insulin-mediated 2-DG uptake, EDL (EDL muscles [1]; 100 nmol 1^−1 TBQ, n=6)","Insulin-mediated 2-DG uptake, EDL (EDL muscles [1]; 500 nmol 1^−1 TBQ, n=4)","Insulin-mediated 2-DG uptake, soleus (soleus muscles [2]; 100 nmol 1^−1 TBQ, n=6)","Insulin-mediated 2-DG uptake, soleus (soleus muscles [2]; 500 nmol 1^−1 TBQ, n=4)","Increase of tetanic force (skeletal muscle; 2-APB 100 μmol 1^−1, 30 min (n=5), TBQ 500 nmol 1^−1 (n=4))","Relaxation speed (in words) (skeletal muscle; 2-APB 100 μmol 1^−1, 30 min, TBQ 500 nmol 1^−1)"
"c1ccc([C@H]2CCC[C@H]2NC2=NCCCCCCCCCCC2)cc1 (relative stereo) [MDL, cis-N-(2-phenylcyclopentyl)azacyclotridec-1-en-2-amine]",decreased insulin-mediated 2-DG uptake in a dose-dependent manner,decreased insulin-mediated 2-DG uptake in a dose-dependent manner,not significantly affected,42 ± 3 (4) μmol 1^−1 min^−1,not significantly affected,42 ± 4 (4) μmol 1^−1 min^−1,not reversed on washout,22±2%,–,–,–,–,–,–,–,–,–,–
insulin,–,–,–,–,–,–,–,–,about 10%,no significant insulin-induced change,about half,74±13 nmol 1^−1,–,–,–,–,–,–
"CC(C)(C)c1cc(O)c(C(C)(C)C)cc1O [TBQ, 2,5-di(tert-butyl)-1,4-benzohydroquinone]",no effect,no effect,no significant effect,37 ± 6 (4) μmol 1^−1 min^−1,no significant effect,63 ± 5 (4) μmol 1^−1 min^−1,–,–,–,–,–,–,93±5 μmol 1^−1 min^−1,103±4 μmol 1^−1 min^−1,150±7 μmol 1^−1 min^−1,179±8 μmol 1^−1 min^−1,4±2%,slight slowing of relaxation
